In EP4800012A1, “COMPOUND ACTING AS PARP7 INHIBITOR” (Dovetree Medicines Unus, Inc., priority 2023, dated 2025) one finds IC50 data, which are given here for 30 compounds.

Experiment [1] has as its target T1, PARP7 (Homo sapiens, UniProt Q7Z3E1).
T1 construct: purchased BPS 80527
T1 sequence (Q7Z3E1 1-657): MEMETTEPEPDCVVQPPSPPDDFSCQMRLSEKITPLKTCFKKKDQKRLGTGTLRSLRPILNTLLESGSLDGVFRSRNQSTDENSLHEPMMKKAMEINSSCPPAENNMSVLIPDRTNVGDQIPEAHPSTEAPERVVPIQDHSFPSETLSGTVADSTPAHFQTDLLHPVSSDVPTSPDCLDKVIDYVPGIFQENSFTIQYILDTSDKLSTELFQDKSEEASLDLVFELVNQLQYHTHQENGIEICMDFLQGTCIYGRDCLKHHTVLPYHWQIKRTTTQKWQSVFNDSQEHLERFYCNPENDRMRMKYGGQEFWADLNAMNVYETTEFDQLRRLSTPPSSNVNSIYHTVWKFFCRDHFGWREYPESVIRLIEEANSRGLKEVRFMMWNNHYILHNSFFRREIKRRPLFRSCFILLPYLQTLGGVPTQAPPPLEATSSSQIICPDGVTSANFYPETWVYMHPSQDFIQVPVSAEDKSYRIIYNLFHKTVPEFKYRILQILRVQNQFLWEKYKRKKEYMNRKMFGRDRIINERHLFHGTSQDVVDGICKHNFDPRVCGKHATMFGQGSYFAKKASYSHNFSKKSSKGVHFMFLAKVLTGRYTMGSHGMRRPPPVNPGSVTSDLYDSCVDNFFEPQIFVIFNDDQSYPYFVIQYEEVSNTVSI
Kind of experiment: Inhibition of the compound on PARP7 protein activity (ADP-ribosylation, chemiluminescence). In kind it is biochemical.

Experiment [2] concerns NCI-H1373 cells. Put plainly: Inhibition on NCI-H1373 cell proliferation (Cell-Titer-Glo). The experiment is classed as cell-based. The following applies: Homo sapiens, 144 h; NCI-H1373 cells, incubation for 6 days, Cell-Titer-Glo; read-out: NCI-H1373 cell proliferation inhibition IC50. On the procedure: The inhibitory effect of the compound on PARP7 was evaluated by testing the inhibitory effect of the compound on NCI-H1373 cell proliferation.
NCI-H1373 cells (ATCC, CRL-5866) were cultured in a complete medium, namely, a RPMI-1640 medium (Gibco, 22400089) containing 10% fetal bovine serum (Corning, 35-081-CV).
Negative control wells and positive control wells were added with 50 nL DMSO (Sigma, D2650), respectively.
In "Day 0" detection plate, NCI-H1373 cells were seeded at a density of 600 cells/well (50 µL) in a complete medium into the Day 0 test wells of a 384-well detection plate (Grenier, 781091). Then, 25 µL of Cell-Titer-Glo reagent (Promega, G7573) was added to each well, followed by centrifugation at 1000 rpm at room temperature for 1 minute and incubation at room temperature under shaded conditions for 10 min. Chemiluminescence signals were collected using an Envision (Perkin Elmer, EnVision 2105) to obtain the average value of the Day 0 test values.
In "compound detection plate", NCI-H1373 cells were seeded at a density of 600 cells/well (50 µL) in a complete medium into the negative control wells and the compound detection wells of a 384-well detection plate (Grenier, 781091), and 50 µL of cell culture medium was added to the positive control wells, followed by centrifugation at 1000 rpm at room temperature for 1 minute and placing in a cell incubator at 37°C, 5% CO2 for incubation for 6 days. […] Chemiluminescence signals were collected using an Envision (Perkin Elmer, EnVision 2105). The test values for each compound well, negative control well, and positive control well were obtained.
The proliferation inhibition ratio formula is as follows: [formula]
The average value of the negative control = the average value of the Day 6 test values of each negative control well minus the average value of the Day 0 test values
The average value of the positive control = the average value of the Day 6 test values of each positive control well
The average value of the compound test = (the Day 6 test value of compound test well 1 + the Day 6 test value of compound test well 2)/2 - the average value of the Day 0 test values

For experiment [3], the target named is T1, PARP7. Put plainly: PARP7 TR-FRET binding inhibition (displacement of probe RBN011147). On the procedure: The ability of the compound to substitute the probe RBN011147 (Wigle et al., 2020, Cell Chemical Biology 27, 877-887) was tested by a TR-FRET method, and IC50 was calculated to evaluate the binding ability of the compound to PARP7. […]
(TR-FRET usually uses a lanthanide donor and a delayed reading to cut background.)

[4] abbreviates: read-out: PARP7 activity inhibition IC50, Histone H1 coated plate, Biotin-Labeled NAD+, 2 h at room temperature, chemiluminescence.
Where [5] appears, read: read-out: PARP7 binding inhibition IC50, TR-FRET, Biotin-labeled probe RBN011147.
[6] abbreviates: Histone H1 coated plate, Biotin-Labeled NAD+, 2 h at room temperature, chemiluminescence, read-out: PARP7 activity inhibition IC50.
[7] abbreviates: TR-FRET, Biotin-labeled probe RBN011147, read-out: PARP7 binding inhibition IC50.

`C[C@@H](CCCNC(=O)c1ccc(-c2nccs2)cn1)Nc1cn[nH]c(=O)c1C(F)(F)F` [Example 46]: the IC50 in experiment [1] (setting [4]) was 10 to 30 nM; in experiment [2], above 3000 nM; in experiment [3] (setting [5]) it was 10 to 30 nM.
For the compound `COc1nc(-c2ccc(C(=O)NCCCC(C)Nc3cn[nH]c(=O)c3C(F)(F)F)cc2)cs1` (stereo not drawn) [Example 65], the IC50 in experiment [1] (setting [6]) is 30 to 100 nM; in experiment [2], above 3000 nM; in experiment [3] (setting [7]), 30 to 100 nM.
With `COc1cnc(-c2ccc(C(=O)NCCCC(C)Nc3cc[nH]c(=O)c3C(F)(F)F)c(F)c2)s1` (stereo not drawn) [Example 27], the IC50 in experiment [1] (setting [6]) was below 3 nM; in experiment [2], above 3000 nM; in experiment [3] (setting [7]) it was 10 to 30 nM.
For the compound `CC(CCCNC(=O)c1ccc(-c2ncc(C(F)(F)F)cn2)cc1O)Nc1cn[nH]c(=O)c1C(F)(F)F` (stereo not drawn) [Example 1], the IC50 in experiment [1] (setting [6]) is below 3 nM; in experiment [2], 1000 to 3000 nM; in experiment [3] (setting [7]) it was below 10 nM.
Taken in the same sequence, the figures for `CC(CCCNC(=O)c1cnc(-c2cc(C(F)(F)F)sn2)c(F)c1)Nc1cn[nH]c(=O)c1C(F)(F)F` (stereo not drawn) [Example 205] were below 3 nM, 300 to 1000 nM and below 10 nM.
In the case of `CC(CCCNC(=O)c1cnc(-c2ncc(C(F)F)s2)cn1)Nc1cn[nH]c(=O)c1C(F)(F)F` (stereo not drawn) [Example 25], the IC50 in experiment [1] (setting [6]) was below 3 nM; in experiment [2] it was 1000 to 3000 nM; in experiment [3] (setting [7]), below 10 nM.
In the same order, the values of `CC(CCCNC(=O)c1ccc(-c2ncc(C3CCCC3)s2)cc1)Nc1cn[nH]c(=O)c1C(F)(F)F` (stereo not drawn) [Example 155] are below 3 nM, 1000 to 3000 nM and 10 to 30 nM.
As for `CC(CCCNC(=O)c1ccc(-c2ncc(N3CC(F)C3)cn2)cc1)Nc1cn[nH]c(=O)c1C(F)(F)F` (stereo not drawn) [Example 20], the IC50 in experiment [1] (setting [6]) was below 3 nM; in experiment [2] it was 1000 to 3000 nM; in experiment [3] (setting [7]), below 10 nM.
In the same order, the values of `CC(CCCNC(=O)c1ccc(-c2ncc(N3CCCCC3)s2)cc1)Nc1cn[nH]c(=O)c1C(F)(F)F` (stereo not drawn) [Example 58] are 3 to 10 nM, above 3000 nM and below 10 nM.
Taken in the same sequence, the figures for `Cc1cc(=O)n(C)nc1-c1ccc(C(=O)NCCCC(C)Nc2cn[nH]c(=O)c2C(F)(F)F)cc1` (stereo not drawn) [Example 66] were 30 to 100 nM, above 3000 nM and above 100 nM.
Taken in the same sequence, the figures for `CC(CCCNC(=O)c1ccc(-c2ncc(N3CCOCC3)s2)cc1)Nc1cn[nH]c(=O)c1C(F)(F)F` (stereo not drawn) [Example 15] were 3 to 10 nM, above 3000 nM and 10 to 30 nM.
For `Cc1cnc(-c2cnc(C(=O)NCCCC(C)Nc3cc[nH]c(=O)c3C(F)(F)F)cn2)s1` (stereo not drawn) [Example 30], the IC50 was 3 to 10 nM in experiment [1] (setting [6]), above 3000 nM in experiment [2] and 30 to 100 nM in experiment [3] (setting [7]).
Taken in the same sequence, the figures for `CC(CCNC(=O)c1cccc2c1[nH]c(=O)n2-c1ncc(C(F)(F)F)cn1)Nc1cn[nH]c(=O)c1C(F)(F)F` (stereo not drawn) [Example 6] were 10 to 30 nM, above 3000 nM and 30 to 100 nM.
With `CC(CCCNC(=O)c1ccc2c(=O)n(C)cnc2c1)Nc1cn[nH]c(=O)c1C(F)(F)F` (stereo not drawn) [Example 59], the IC50 in experiment [1] (setting [6]) is 30 to 100 nM; in experiment [2], above 3000 nM; in experiment [3] (setting [7]) it was 30 to 100 nM.
In the case of `CC(CCCNC(=O)c1ccc(-c2csc(C(F)(F)F)n2)cc1)Nc1cn[nH]c(=O)c1C(F)(F)F` (stereo not drawn) [Example 80], the IC50 in experiment [1] (setting [6]) was 10 to 30 nM; in experiment [2], above 3000 nM; in experiment [3] (setting [7]), 30 to 100 nM.
As for `CC(CCCNC(=O)c1cnc(-c2cscn2)c(F)c1)Nc1cn[nH]c(=O)c1C(F)(F)F` (stereo not drawn) [Example 178], the figures for the IC50 in experiment [1] (setting [6]), in experiment [2] and in experiment [3] (setting [7]) were below 3 nM, above 3000 nM and 10 to 30 nM, respectively.
`Cc1cc(NC(C)CCCNC(=O)c2cnc(-c3ncc(C(F)(F)F)cn3)cn2)c(C#N)c(=O)[nH]1` (stereo not drawn) [Example 35]: the IC50 is 10 to 30 nM in experiment [1], above 3000 nM in experiment [2] and 30 to 100 nM in experiment [3].
Regarding `CC(CCCNC(=O)c1ncc(-c2ncc(C(F)(F)F)cn2)s1)Nc1cn[nH]c(=O)c1C(F)(F)F` (stereo not drawn) [Example 151], the results for the IC50 in experiment [1] (setting [6]), in experiment [2] and in experiment [3] (setting [7]) were 3 to 10 nM, above 3000 nM and 30 to 100 nM, respectively.
In the same order, the values of `CC(CCCNC(=O)c1ccc(-c2ncc(C(F)(F)F)cn2)cc1F)Nc1cn[nH]c(=O)c1C(F)(F)F` (stereo not drawn) [Example 2] are below 3 nM, 300 to 1000 nM and below 10 nM.
Consider `O=C(NCCC[C@H]1CCN1c1cn[nH]c(=O)c1C(F)(F)F)c1cnc(-c2ncc(C(F)(F)F)cn2)cn1` [Example 164], for which the figures for the IC50 in experiment [1] (setting [4]), in experiment [2] and in experiment [3] (setting [5]) were above 100 nM, above 3000 nM and above 100 nM, respectively.
Regarding `CC(CCCNC(=O)c1ccc(-c2ncc(C#N)cc2F)cc1)Nc1cn[nH]c(=O)c1C(F)(F)F` (stereo not drawn) [Example 67], the IC50 in experiment [1] (setting [6]) is below 3 nM; in experiment [2], 300 to 1000 nM; in experiment [3] (setting [7]) it was below 10 nM.
Consider `CC(CCCNC(=O)c1cnc(-c2ncc(C(F)(F)F)cn2)cn1)Oc1cn[nH]c(=O)c1C(F)(F)F` (stereo not drawn) [Example 51], for which the IC50 is below 3 nM in experiment [1] (setting [6]), below 300 nM in experiment [2] and 30 to 100 nM in experiment [3] (setting [7]).
Taken in the same sequence, the figures for `CC(CCCNC(=O)c1ccc(-n2cccn2)c(F)c1)Nc1cn[nH]c(=O)c1C(F)(F)F` (stereo not drawn) [Example 62] were 30 to 100 nM, above 3000 nM and 30 to 100 nM.
In the same order, the values of `CC(CCCN(C)C(=O)c1cnc(-c2ncc(C(F)(F)F)cn2)cn1)Nc1cn[nH]c(=O)c1C(F)(F)F` (stereo not drawn) [Example 50] are below 3 nM, above 3000 nM and 10 to 30 nM.
In the same order, the values of `CC(CCCNC(=O)c1cnc(-c2ncc(C(F)(F)F)cn2)cn1)Nc1cc[nH]c(=O)c1C#N` (stereo not drawn) [Example 52] are 10 to 30 nM, above 3000 nM and 30 to 100 nM.
For the compound `CC(CCCNC(=O)c1cc(-c2ncc(C(F)(F)F)cn2)on1)Nc1cn[nH]c(=O)c1C(F)(F)F` (stereo not drawn) [Example 39], the IC50 in experiment [1] (setting [6]) was below 3 nM; in experiment [2], 300 to 1000 nM; in experiment [3] (setting [7]), below 10 nM.
Taken in the same sequence, the figures for `CC(CCCNC(=O)c1ncc(-c2ncc(C(F)(F)F)cn2)cc1F)Nc1cn[nH]c(=O)c1C(F)(F)F` (stereo not drawn) [Example 73] were below 3 nM, 300 to 1000 nM and below 10 nM.
In the same order, the values of `CC(CCCNC(=O)c1ccc(-c2ncc(C(F)(F)F)s2)cn1)Nc1cn[nH]c(=O)c1C(F)(F)F` (stereo not drawn) [Example 209] are below 3 nM, below 300 nM and 10 to 30 nM.
Taken in the same sequence, the figures for `CC(CCCNC(=O)c1ccc(-c2noc(C3CC3)n2)cc1)Nc1cn[nH]c(=O)c1C(F)(F)F` (stereo not drawn) [Example 186] were below 3 nM, 1000 to 3000 nM and 10 to 30 nM.
Turning to `CC(CCCNC(=O)c1ccc(-c2ccc(-c3cnco3)cn2)cc1)Nc1cn[nH]c(=O)c1C(F)(F)F` (stereo not drawn) [Example 188], the IC50 was below 3 nM in experiment [1] (setting [6]), above 3000 nM in experiment [2] and 10 to 30 nM in experiment [3] (setting [7]).
